Patent US6472351B1, “Herbicide” (Barrier Biotech Limited, priority 1998, dated 2002)

System: ragwort
Experiment: Replicated field trials 1997, ragwort control 0-10 score versus 2,4-D (Example 3)
Assay type: in vivo, Senecio Jacobaea
Settings: for 0-10 Score, 0 = No Control; T1 + 42 / 0-10 Score, 0 = No Control; T1 + 14 / 0-10 Score, 0 = No Control; T1 + 28 / 0-10 Score, 0 = No Control; T1 + 1 / 0-10 Score, 0 = No Control; T1 + 7: l/ha 2,4-D standard; for 0-10 Score, 0 = No Control; T1 + 42: scored 02/09/97; for 0-10 Score, 0 = No Control; T1 + 28: scored 19/08/97
Method: In 1997 properly replicated field evaluations of the efficacy of the composition according to the invention as a herbicide were carried out and 3 trial sites were located where the composition was tested against the standard product, 2, 4-D applied at a dose of 3.0 l/ha to individual plants. The trials were designed as a randomised complete block but within each “plot” area, 10 ragwort plants for each growth stage (rosette & flowing stems) were tagged with numbered markers and these were treated with the appropriate compound. […] This method reduced the risk of excessive run-off if eight squirts had been applied in a single application. […] As with the larger plants in the laboratory tests, some degree of re-growth was noted on a few of the treated plants. After the last assessments had been made, some of these plants were retreated with a second application of BH 99 and the effect was compared with untreated plants after a further 4 weeks which data is presented in the results section below.
In all evaluations the composition BH 99 was used comprising:
was applied to plants using the same equipment. The ready-mixed formulated product was contained in a 5 liter polyethylene bottle to which was fitted with a Frapak CHS-5A trigger sprayer and dip tube. This equipment delivers 2.4 mls of spray for each full squeeze of the trigger and provides a very convenient method of application.
In the replicated field trials in 1997, the 2, 4-D treatments were applied using a Hardy (backpack) small plot sprayer fitted with a lance carrying a single F110-03 nozzle. Individual plants were sprayed at a forward speed of 1.6 m/s and a pressure of 2 bar to give an application volume of 200 l/ha. Dose of 2, 4-D applied by this method was 3.0 l/ha.
Replicated Field Trials, 1997: The efficacy of BH 99 was tested against ragwort at the rosette and flowering stages at Shropham and Barnham sites but only against the rosette stage at Hockham since no flowering stems were presented.

[1] = Barnham, Flower, applied T1 23/07/97
[2] = Barnham, Rosette, applied T1 23/07/97
[3] = Hockham, Rosette, applied T1 25/07/97
[4] = flowering stage, standard at 3.0 l/ha, mean of n = 2 sites, 0-10 score
[5] = rosette stage, standard at 3.0 l/ha, mean of n = 3 sites, 0-10 score

**Q.** Which results are given for `O=C(O)COc1ccc(Cl)cc1Cl` [2,4-D, 2,4-D]?
**A.** Time until full activity manifest (3.0 l/ha, days after application): 42 days; 0-10 Score, 0 = No Control; T1 + 42 [1]: 9.4; 0-10 Score, 0 = No Control; T1 + 14 (Barnham, Flower, applied T1 23/07/97, scored 08/08/97): 7.3; 0-10 Score, 0 = No Control; T1 + 28 [1]: 8.9; 0-10 Score, 0 = No Control; T1 + 1 (Barnham, Flower, applied T1 23/07/97, scored 24/07/97): 0.3; 0-10 Score, 0 = No Control; T1 + 7 (Barnham, Flower, applied T1 23/07/97, scored 30/07/97): 1; 0-10 Score, 0 = No Control; T1 + 42 [2]: 9.9; 0-10 Score, 0 = No Control; T1 + 14 (Barnham, Rosette, applied T1 23/07/97, scored 08/08/97): 4.8; 0-10 Score, 0 = No Control; T1 + 28 [2]: 9.1; 0-10 Score, 0 = No Control; T1 + 1 (Barnham, Rosette, applied T1 23/07/97, scored 24/07/97): 0.1; 0-10 Score, 0 = No Control; T1 + 7 (Barnham, Rosette, applied T1 23/07/97, scored 30/07/97): 0.8; 0-10 Score, 0 = No Control; T1 + 7 (Hockham, Rosette, applied T1 25/07/97, scored 01/08/97): 0.4; 0-10 Score, 0 = No Control; T1 + 42 [3]: 9.8; 0-10 Score, 0 = No Control; T1 + 14 (Hockham, Rosette, applied T1 25/07/97, scored 07/08/97): 0.8; 0-10 Score, 0 = No Control; T1 + 28 [3]: 5.2; 0-10 Score, 0 = No Control; T1 + 1 (Hockham, Rosette, applied T1 25/07/97, scored 26/07/97): 0.1; Mean Score for Ragwort Control When Treated at the Flowering Stage, 1 DAT [4]: 0.3; Mean Score for Ragwort Control When Treated at the Flowering Stage, 7 DAT [4]: 0.8; Mean Score for Ragwort Control When Treated at the Flowering Stage, 14 DAT [4]: 4.9; Mean Score for Ragwort Control When Treated at the Flowering Stage, 28 DAT [4]: 7.4; Mean Score for Ragwort Control When Treated at the Flowering Stage, 42 DAT [4]: 8.4; Mean Score for Ragwort Control When Treated at the Rossette Stage, 1 DAT [5]: 0.1; Mean Score for Ragwort Control When Treated at the Rossette Stage, 7 DAT [5]: 0.5; Mean Score for Ragwort Control When Treated at the Rossette Stage, 14 DAT [5]: 2.1; Mean Score for Ragwort Control When Treated at the Rossette Stage, 28 DAT [5]: 6.9; Mean Score for Ragwort Control When Treated at the Rossette Stage, 42 DAT [5]: 9.4
